Results as given in patent publication US20250163038A1, “CBL-B MODULATORS AND USES THEREOF” (Nimbus Clio, Inc., priority 2021, published 2025).
Read-outs that look alike come from different tables or passages of the source.

Legend:
[1] = target: Recombinant human Cbl-b (aa 36-427) (Homo sapiens, UniProt Q13191); assay: Cbl-b Biochemical Assay (TR-FRET); conditions: read-out: TR-FRET hCbl-b IC50
[2] = system: Jurkat (clone E6-1) cells with NFAT luciferase reporter; assay: Jurkat reporter assay (NFAT Luciferase); type: cell-based
[3] = target: T1, Recombinant human c-Cbl (aa 47-435) (Homo sapiens, UniProt P22681); assay: c-Cbl Biochemical Assay (TR-FRET); conditions: hc-Cbl Biochemical Assay (TR-FRET); read-out: TR-FRET hcCbl IC50
T1 sequence (P22681 47-435): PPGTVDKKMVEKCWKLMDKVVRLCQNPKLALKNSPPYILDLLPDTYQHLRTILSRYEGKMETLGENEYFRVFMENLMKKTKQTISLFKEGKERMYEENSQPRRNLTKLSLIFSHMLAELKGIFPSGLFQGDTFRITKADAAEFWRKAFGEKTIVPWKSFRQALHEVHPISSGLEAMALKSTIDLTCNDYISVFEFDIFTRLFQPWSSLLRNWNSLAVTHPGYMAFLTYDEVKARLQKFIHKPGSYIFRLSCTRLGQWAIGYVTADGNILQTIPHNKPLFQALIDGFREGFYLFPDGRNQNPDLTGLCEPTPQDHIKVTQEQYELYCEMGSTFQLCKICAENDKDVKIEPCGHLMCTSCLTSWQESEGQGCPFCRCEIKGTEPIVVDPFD

[4] = Homo sapiens, Jurkat NFAT luciferase reporter cells, anti-CD3 stimulation, 6 hr, read-out: Jurkat NFAT EC50

Sequence of Recombinant human Cbl-b (aa 36-427) (Q13191 36-427): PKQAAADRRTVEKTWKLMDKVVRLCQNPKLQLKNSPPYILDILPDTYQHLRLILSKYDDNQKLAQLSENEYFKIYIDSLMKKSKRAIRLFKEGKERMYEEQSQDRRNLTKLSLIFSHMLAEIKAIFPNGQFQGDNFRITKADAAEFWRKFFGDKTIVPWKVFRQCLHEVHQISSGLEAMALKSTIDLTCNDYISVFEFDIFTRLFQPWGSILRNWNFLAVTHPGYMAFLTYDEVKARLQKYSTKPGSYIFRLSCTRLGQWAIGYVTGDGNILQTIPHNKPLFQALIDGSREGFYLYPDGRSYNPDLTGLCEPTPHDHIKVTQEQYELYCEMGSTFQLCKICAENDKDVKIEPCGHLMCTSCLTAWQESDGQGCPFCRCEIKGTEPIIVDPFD

Row | SMILES | IC50 [1] [nM] | IC50 [3] [nM] | EC50 [2, 4] [µM] | EC50 ([2]; Homo sapiens, Jurkat, 6 h, read-out: Jurkat NFAT EC50 (μM)) [µM] | EC50 ([2]; Jurkat NFAT luciferase reporter cells, anti-CD3 stimulation, 6 hr, read-out: Jurkat NFAT EC50) [µM]
1 | C[C@H]1CCCN(Cc2cc(C(F)(F)F)c3oc(-c4cc(-c5ccccc5-c5nncn5C)cc(C5CC5)n4)nc3c2)C1 [AAP-7, 2-{6-Cyclopropyl-4-[2-(4-methyl-1,2,4-triazol-3-yl)phenyl]pyridin-2-yl}-5-{[(3S)-3-methylpiperidin-1-yl]methyl}-7-(trifluoromethyl)-1,3-benzoxazole] | < 200 | 1000 to 10000 |  | 0.2 to 1 | 
2 | C[C@@H]1CCCN(Cc2cc(C(F)(F)F)c3oc(-c4cc(-c5ccccc5-c5nncn5C)cc(C5CC5)n4)nc3c2)C1 [AAQ-2, 2-{6-Cyclopropyl-4-[2-(4-methyl-1,2,4-triazol-3-yl)phenyl]pyridin-2-yl}-5-{[(3R)-3-methylpiperidin-1-yl]methyl}-7-(trifluoromethyl)-1,3-benzoxazole] | 200 to 1000 | 1000 to 10000 | 1 to 10 |  | 
3 | Cn1cnnc1-c1cc(C#N)ccc1-c1cccc(-c2nc3cc(CN[C@@H]4CCC[C@@H]4O)cc(C(F)(F)F)c3[nH]2)c1 [AAW-5, 3′-(5-((((1R,2S)-2-Hydroxycyclopentyl)amino)methyl)-7-(trifluoromethyl)-1H-benzo[d]imidazol-2-yl)-2-(4-methyl-4H-1,2,4-triazol-3-yl)-[1,1′-biphenyl]-4-carbonitrile] | < 200 | 1000 to 10000 | 0.2 to 1 |  | 
4 | Cn1cnnc1CC1(c2cccc(-c3nc4cc(CN5CCC6(CC6)C5)cc(C(F)(F)F)c4[nH]3)c2)COC1 [ABK-1, 5-((5-Azaspiro[2.4]heptan-5-yl)methyl)-2-(3-(3-((4-methyl-4H-1,2,4-triazol-3-yl)methyl)oxetan-3-yl)phenyl)-7-(trifluoromethyl)-1H-benzo[d]imidazole] | 200 to 1000 | 1000 to 10000 | 1 to 10 |  | 
5 | Cn1cnnc1-c1ccccc1-c1cccc(-c2nc3cc(CN4CCC5(CC5)C4)cc(C(F)(F)F)c3[nH]2)c1 [ACF-1, 5-((5-Azaspiro[2.4]heptan-5-yl)methyl)-2-(2′-(4-methyl-4H-1,2,4-triazol-3-yl)-[1,1′-biphenyl]-3-yl)-7-(trifluoromethyl)-1H-benzo[d]imidazole] | 200 to 1000 | 10000 to 50000 | 1 to 10 |  | 
6 | CC(c1cc(C(F)(F)F)c2[nH]c(-c3cccc(C4(Cc5nncn5C)COC4)c3)nc2c1)N1CCC2(CC2)C1 (stereo not drawn) [ACK-3, 5-(1-(5-Azaspiro[2.4]heptan-5-yl)ethyl)-2-(3-(3-((4-methyl-4H-1,2,4-triazol-3-yl)methyl)oxetan-3-yl)phenyl)-7-(trifluoromethyl)-1H-benzo[d]imidazole] | 200 to 1000 | 10000 to 50000 | 1 to 10 |  | 
7 | C[C@@H](c1cc(C(F)(F)F)c2[nH]c(-c3cccc(C4(Cc5nncn5C)COC4)c3)nc2c1)N1CCC2(CC2)C1 [ACM-1, (S)-5-(1-(5-Azaspiro[2.4]heptan-5-yl)ethyl)-2-(3-(3-((4-methyl-4H-1,2,4-triazol-3-yl)methyl)oxetan-3-yl)phenyl)-7-(trifluoromethyl)-1H-benzo[d]imidazole] | 200 to 1000 | 10000 to 50000 | 1 to 10 |  | 
8 | C[C@H](c1cc(C(F)(F)F)c2[nH]c(-c3cccc(C4(Cc5nncn5C)COC4)c3)nc2c1)N1CCC2(CC2)C1 [ACN-1, (R)-5-(1-(5-Azaspiro[2.4]heptan-5-yl)ethyl)-2-(3-(3-((4-methyl-4H-1,2,4-triazol-3-yl)methyl)oxetan-3-yl)phenyl)-7-(trifluoromethyl)-1H-benzo[d]imidazole] | 200 to 1000 | 200 to 1000 | 1 to 10 |  | 
9 | Cn1cnnc1-c1cc(F)ccc1-c1cccc(-c2nc3cc(CN4CC[C@H](O)C4)cc(C(F)(F)F)c3o2)c1 [AD-2, (S)-1-((2-(4′-Fluoro-2′-(4-methyl-4H-1,2,4-triazol-3-yl)-[1,1′-biphenyl]-3-yl)-7-(trifluoromethyl)benzo[d]oxazol-5-yl)methyl)pyrrolidin-3-ol] | < 200 | 1000 to 10000 | 1 to 10 |  | 
10 | Cn1cnnc1-c1cc(F)ccc1-c1cc(-c2nc3cc(CN[C@@H]4CCC[C@@H]4O)cc(C(F)(F)F)c3o2)nc(C2CC2)c1 [ADA-6, (1S,2R)-2-{[(2-{6-Cyclopropyl-4-[4-fluoro-2-(4-methyl-1,2,4-triazol-3-yl)phenyl]pyridin-2-yl}-7-(trifluoromethyl)-1,3-benzoxazol-5-yl)methyl]amino}cyclopentan-1-ol] | < 200 | < 200 | < 0.2 |  | 
11 | Cn1cnnc1-c1cc(Cl)ccc1-c1cccc(-c2nc3cc(CN[C@@H]4CCC[C@@H]4O)cc(C(F)(F)F)c3[nH]2)c1 [ADB-9, (1S,2R)-2-(((2-(4′-Chloro-2′-(4-methyl-4H-1,2,4-triazol-3-yl)-[1,1′-biphenyl]-3-yl)-7-(trifluoromethyl)-1H-benzo[d]imidazol-5-yl)methyl)amino)cyclopentan-1-ol] | < 200 | < 200 | < 0.2 |  | 
12 | Cn1cnnc1[C@]1(c2cccc(-c3nc4cc(CN[C@@H]5CCC[C@@H]5O)cc(C(F)(F)F)c4o3)c2)C[C@@H](C)C1 [ADE-3, (1S,2R)-2-{[(2-{3-[(1r,3s)-3-Methyl-1-(4-methyl-1,2,4-triazol-3-yl)cyclobutyl]phenyl}-7-(trifluoromethyl)-1,3-benzoxazol-5-yl)methyl]amino}cyclopentan-1-ol] | < 200 | < 200 |  |  | < 0.2

The next lines start with results.

Row | IC50 [1] [nM] | IC50 [3] [nM] | EC50 [2, 4] [µM] | SMILES | EC50 ([2]; Homo sapiens, Jurkat, 6 h, read-out: Jurkat NFAT EC50 (μM)) [µM] | EC50 ([2]; Jurkat NFAT luciferase reporter cells, anti-CD3 stimulation, 6 hr, read-out: Jurkat NFAT EC50) [µM]
13 | < 200 | 1000 to 10000 | 1 to 10 | Cn1cnnc1-c1ccccc1-c1cc(-c2nc3cc(CN4CCC5(CC5)C4)cc(C(F)(F)F)c3o2)nc(C2CC2)c1 [AAR-2, 5-{5-Azaspiro[2.4]-heptan-5-ylmethyl}-2-{6-cyclopropyl-4-[2-(4-methyl-1,2,4-triazol-3-yl)-phenyl]-pyridin-2-yl}-7-(trifluoromethyl)-1,3-benzoxazole] |  | 
14 | < 200 | 1000 to 10000 | 1 to 10 | Cn1cnnc1-c1ccccc1-c1cc(-c2nc3cc(CN4CCC5(CC5)C4)cc(C(F)(F)F)c3[nH]2)nc(C2CC2)c1 [AAS-2, 5-((5-Azaspiro[2.4]heptan-5-yl)methyl)-2-(6-cyclopropyl-4-(2-(4-methyl-4H-1,2,4-triazol-3-yl)phenyl)pyridin-2-yl)-7-(trifluoromethyl)-1H-benzo[d]imidazole] |  | 
15 | < 200 | 10000 to 50000 | 1 to 10 | C[C@H]1CCCN(Cc2cc(C(F)(F)F)c3[nH]c(-c4cccc([C@]5(c6nncn6C)C[C@@H](C)C5)c4)nc3c2)C1 [AAX-12, 6-{[(3S)-3-Methylpiperidin-1-yl]methyl}-2-{3-[(1r,3s)-3-methyl-1-(4-methyl-1,2,4-triazol-3-yl)cyclobutyl]phenyl}-4-(trifluoromethyl)-3H-1,3-benzodiazole] |  | 
16 | < 200 | 1000 to 10000 | 1 to 10 | C[C@H]1CCCN(Cc2cc(C(F)(F)F)c3oc(-c4cccc([C@]5(c6nncn6C)C[C@@H](C)C5)c4)nc3c2)C1 [AAY-2, 5-{[(3S)-3-Methylpiperidin-1-yl]methyl}-2-{3-[(1r,3s)-3-methyl-1-(4-methyl-1,2,4-triazol-3-yl)cyclobutyl]phenyl}-7-(trifluoromethyl)-1,3-benzoxazole] |  | 
17 | < 200 | 1000 to 10000 | 0.2 to 1 | C[C@H]1CCCN(Cc2cc(C(F)(F)F)c3[nH]c(-c4cc(-c5ccc(F)cc5-c5nncn5C)cc(C5CC5)n4)nc3c2)C1 [AAZ-10, (S)-2-(6-Cyclopropyl-4-(4-fluoro-2-(4-methyl-4H-1,2,4-triazol-3-yl)phenyl)pyridin-2-yl)-5-((3-methylpiperidin-1-yl)methyl)-7-(trifluoromethyl)-1H-benzo[d]imidazole] |  | 
18 | < 200 | 1000 to 10000 | 1 to 10 | CO[C@H]1CCN(Cc2cc(C(F)(F)F)c3oc(-c4cccc(-c5ccc(F)cc5-c5nncn5C)c4)nc3c2)C1 [AB-2, (S)-2-(4′-Fluoro-2′-(4-methyl-4H-1,2,4-triazol-3-yl)-[1,1′-biphenyl]-3-yl)-5-((3-methoxypyrrolidin-1-yl)methyl)-7-(trifluoromethyl)benzo[d]oxazole] |  | 
19 | < 200 | 1000 to 10000 | 0.2 to 1 | Cn1cnnc1-c1cc(F)ccc1-c1cc(C(=O)Nc2cc(CN3CCC4(CC4)C3)cc(C(F)(F)F)c2N)nc(C2CC2)c1 [ABA-1, N-(5-((5-Azaspiro[2.4]heptan-5-yl)methyl)-2-amino-3-(trifluoromethyl)phenyl)-6-cyclopropyl-4-(4-fluoro-2-(4-methyl-4H-1,2,4-triazol-3-yl)phenyl)picolinamide] |  | 
20 | < 200 | 1000 to 10000 | 0.2 to 1 | Cn1cnnc1-c1cc(F)ccc1-c1cccc(-c2nc3cc(CNCC4(O)COC4)cc(C(F)(F)F)c3o2)c1 [AC-2, 3-((((2-(4′-Fluoro-2′-(4-methyl-4H-1,2,4-triazol-3-yl)-[1,1′-biphenyl]-3-yl)-7-(trifluoromethyl)benzo[d]oxazol-5-yl)methyl)amino)methyl)oxetan-3-ol] |  | 
21 | < 200 | < 200 | < 0.2 | Cn1cnnc1-c1cc(F)ccc1-c1cc(-c2nc3cc(CN[C@@H]4CCC[C@@H]4O)cc(C(F)(F)F)c3o2)cc(C2CC2)c1 [ACZ-8, (1S,2R)-2-[({2-[5-Cyclopropyl-4′-fluoro-2′-(4-methyl-1,2,4-triazol-3-yl)-[1,1′-biphenyl]-3-yl]-7-(trifluoromethyl)-1,3-benzoxazol-5-yl}methyl)amino]cyclopentan-1-ol] |  | 
